# Laboratory results from paper PMC12645589, “mPEG@ELA-11 Alleviates Atherosclerosis via AKT-ER Stress-Mediated Macrophage Modulation” (BME Frontiers, 2025).
# Where two headings read alike, the source gives them in different places.
# How the values were obtained:
# RAW264.7 macrophages [1] = experiment: CCK-8 cell viability assay; assay type: cell-based, murine
# Experimental: Finally, the cytotoxicity of mPEG@ELA-11 was assessed using the CCK-8 assay. […] The absence of cytotoxicity is a critical factor for the potential clinical application of mPEG@ELA-11.
# Cell viability was assessed using the CCK-8 kit (Biosharp, China) according to the manufacturer’s instructions. Cells were seeded in 96-well plates at 1 × 10^5 cells/ml and treated with various compounds for 24 to 72 h before analysis.
# RAW264.7 macrophages [2] = experiment: Foam cell formation, Oil Red O staining; assay type: cell-based, murine; settings: n = 3; for effect of co-treatment on the protective (foam cell inhibiting) effect of ELA-11: ox-LDL 50 μg/ml 48 h + ELA-11, modulator 1 μM, vs ox-LDL + ELA-11 group
# Experimental: To assess the impact of ELA-11 on foam cell formation, RAW264.7 macrophages were pretreated with ELA-11 (1 μM) for 2 h before being exposed to ox-LDL (50 μg/ml) for 48 h.
# (§1) For foam cell formation assays, cells were seeded in 6-well plates at 1 × 10^6 cells/well. Cells were pretreated with ELA-11 (1 μM) for 2 h before exposure to oxidized low-density lipoprotein (ox-LDL, 50 or 100 μg/ml) for 48 h. Where indicated, cells were cotreated with tunicamycin (1 μM, ER stress activator), ML221 (1 μM, APJ receptor antagonist), Recilisib (1 μM, AKT activator), or 4-PBA (1 μM, ER stress inhibitor).
# Cells were fixed with 4% paraformaldehyde for 30 min, rinsed with 60% isopropanol, and stained with Oil Red O working solution for 10 min. After washing with distilled water, stained cells were imaged using a light microscope. For quantification, staining intensity was analyzed using ImageJ software.
# AKT phosphorylation = experiment: Western blot of AKT phosphorylation; assay type: cell-based, murine; settings: ox-LDL + ELA-11 + modulator (1 μM), n = 3
# Experimental: as §1
# (§2) Cells were lysed in RIPA buffer supplemented with protease and phosphatase inhibitors. Equal protein amounts were separated by 10% sodium dodecyl sulfate–polyacrylamide gel electrophoresis, followed by transfer to polyvinylidene fluoride membranes. Membranes were blocked with 5% milk and incubated overnight at 4 °C with primary antibodies against p-PERK, PERK, p-eIF2α, eIF2α, ATF4, CHOP, p-AKT, AKT, and GAPDH, followed by horseradish peroxidase-conjugated secondary antibodies. Protein bands were visualized using enhanced chemiluminescence reagents.
# [3] = test system: ER stress-associated proteins (p-PERK, p-eIF2α, CHOP, and ATF4); experiment: Western blot of ER stress markers; assay type: cell-based, murine; settings: ox-LDL + ELA-11 + modulator (1 μM), n = 3
# Experimental: as §1, §2
# ApoE^-/- mice [4] = experiment: Biosafety evaluation in mice (histology, body weight, blood biochemistry); settings: for histopathological changes in major organs (heart, liver, spleen, lungs, and kidneys): 1 mg/kg every 3 days; for tissue morphology of heart, liver, spleen, lungs, and kidneys (H&E), long-term toxicity: 1 mg/kg via the tail vein, once every 3 days for 2 consecutive months, n = 6; for changes in body weight: throughout the treatment period, n=6, p>0.05
# Experimental: To evaluate the safety and biocompatibility of the treatments, histological analysis was performed on major organs (heart, liver, spleen, lungs, and kidneys) from all groups.
# At the study endpoint, mice were euthanized under isoflurane anesthesia. Blood was collected for biochemical analysis, and the entire aorta was harvested from the ascending aorta to the iliac bifurcation.
# Histological examination of the heart, liver, spleen, lungs, and kidneys in different treatments groups which were respectively injected with the same dose (1 mg/kg) of PBS, ELA-11, and mPEG@ELA-11 via the tail vein, once every 3 days for 2 consecutive months. […] Representative images were chosen from n = 6 mice per group.
# [5] = pH-responsive in vitro release of ELA-11; assay type: physicochemical
# Experimental: To assess the pH-responsive release behavior of mPEG@ELA-11, in vitro release studies were conducted. […] At 12 h post-injection, only 45% of Cy5-mPEG@ELA-11 was degraded, while 70% of Cy5-ELA-11 had already been degraded.
# (§3) NP characterization was performed using FT-IR, NMR, DLS, and TEM. pH-responsive drug release was evaluated at pH values of 5.5, 6.5, and 7.4. For fluorescence imaging, NPs were labeled with ICG, Cy5 or Cy5.5.
# [6] = Colloidal stability in physiological media over 5 days; assay type: physicochemical; settings: mean ± SD
# Experimental: The colloidal stability of mPEG@ELA-11 was evaluated in various physiological media over a 5-day period. The hydrodynamic diameter remained stable in PBS, serum, and 1640 culture medium, with only minor increases observed over time (Fig. 5E). On day 1, the sizes in PBS, serum, and 1640 medium were 36 ± 2.12, 43 ± 3.01, and 44 ± 4.53 nm, respectively. By day 5, these had increased slightly to 42 ± 3.36, 49 ± 3.49, and 50 ± 2.98 nm, respectively.
# [7] = Nanoparticle size by DLS and TEM; assay type: physicochemical
# Experimental: The slight difference between DLS and TEM measurements is expected, as DLS measures the hydrodynamic diameter in solution, while TEM visualizes dehydrated NPs.
# as §3
# ApoE^-/- mice [8] = experiment: Serum inflammatory markers and lipids in treated ApoE-/- mice; assay type: in vivo
# Text: At the study endpoint, mice were euthanized under isoflurane anesthesia. Blood was collected for biochemical analysis, and the entire aorta was harvested from the ascending aorta to the iliac bifurcation. For en face analysis, aortas were stained with Oil Red O. The aortic root was sectioned for histological analysis, including Oil Red O, H&E, Masson’s trichrome, and immunofluorescence staining for CD31 and α-SMA.
# ApoE^-/- mice [9] = experiment: Atherosclerosis in ApoE-/- mice fed a high-fat diet; assay type: in vivo; settings: HFD
# Text: To evaluate the therapeutic efficacy of ELA-11 in AS, ApoE^-/- mice fed a high-fat diet (HFD) were utilized as an established AS model. Male ApoE^-/- mice were randomly allocated into 3 groups (n = 6 per group): a control group fed a normal chow diet (NCD), an HFD group treated with phosphate-buffered saline (HFD + PBS), and a treatment group treated with ELA-11 (HFD + ELA-11). ApoE^-/- mice were initiated on HFD at 8 weeks of age. Four weeks later, at the beginning of the fifth week of HFD feeding, mice in the HFD + ELA-11 group received intraperitoneal injections of ELA-11 (1 mg/kg) every 3 days for a total of 19 injections. Mice were sacrificed at 20 weeks of age (Fig. 4A).
# To evaluate the therapeutic potential of mPEG@ELA-11 NPs in vivo, a series of experiments were conducted using ApoE^-/- mice fed an HFD for 3 months to induce AS. The mice were randomly assigned to 4 groups (n = 6): a negative control group fed an NCD, an HFD group treated with PBS (HFD + PBS), an HFD group treated with free ELA-11 (HFD + ELA-11), and an HFD group treated with mPEG@ELA-11 NPs (HFD + mPEG@ELA-11). The administration route, frequency, and dosage were the same as described above.
# Male ApoE^-/- mice (26 to 31 g, 8 weeks old) were obtained from GemPharmatech Co., Ltd. and housed under specific pathogen-free conditions. Mice were randomly allocated into 4 groups (n = 6/group): NCD, HFD + PBS, HFD + ELA-11, and HFD + mPEG@ELA-11. The HFD (Research Diets D12079B) consisted of 21% fat and 0.21% cholesterol. Drug treatments (1 mg/kg) were administered intraperitoneally every 3 days for 8 weeks, beginning at week 13. All animal procedures were approved by the institutional animal care committee.
# [10] = n = 6, P < 0.05, the words describe the HFD group, i.e. treated groups lower
compound,measurement,setting,value
O=C(Oc1coc(CSc2ncccn2)cc1=O)c1ccc([N+](=O)[O-])cc1 [ML221],cytotoxicity (cell viability assay),RAW264.7 macrophages [1],no significant cytotoxicity
same,effect of co-treatment on the protective (foam cell inhibiting) effect of ELA-11,RAW264.7 macrophages [2],significantly attenuated
same,effect of co-treatment on the inhibition of AKT signaling by ELA-11,AKT phosphorylation,attenuated
same,effect of co-treatment on the suppression of ER stress markers by ELA-11,[3],partially reverse
CSCC[C@H](NC(=O)[C@@H](N)CS)C(=O)N1CCC[C@H]1C(=O)N[C@@H](CC(C)C)C(=O)N[C@@H](Cc1cnc[nH]1)C(=O)N[C@@H](CO)C(=O)N[C@@H](CCCNC(=N)N)C(=O)N[C@H](C(=O)N1CCC[C@H]1C(=O)N[C@@H](Cc1ccccc1)C(=O)N1CCC[C@H]1C(=O)O)C(C)C [ELA-11],"histopathological changes in major organs (heart, liver, spleen, lungs, and kidneys)",ApoE^-/- mice [4],No significant histopathological changes
same,"tissue morphology of heart, liver, spleen, lungs, and kidneys (H&E), long-term toxicity",ApoE^-/- mice [4],no appreciable changes in tissue morphology
same,changes in body weight,ApoE^-/- mice [4],No significant histopathological changes in any of the organs or abnormal changes in body weight were observed
same,cytotoxicity (cell viability assay),RAW264.7 macrophages [1],no significant cytotoxicity
Tunicamycin,cytotoxicity (cell viability assay),"RAW264.7 macrophages [1]; CCK-8, ox-LDL-induced Raw264.7 macrophages, concentrations employed in the study, 24 and 48 hours, n=4, p > 0.05 (Fig. S1)",no significant cytotoxicity
same,effect of co-treatment on the protective (foam cell inhibiting) effect of ELA-11,RAW264.7 macrophages [2],significantly attenuated
same,effect of co-treatment on the inhibition of AKT signaling by ELA-11,AKT phosphorylation,maintained its inhibitory effect
same,effect of co-treatment on the suppression of ER stress markers by ELA-11,[3],diminished
O=C(O)c1ccc(/C=C/S(=O)(=O)Cc2ccc(Cl)cc2)cc1 [Recilisib],effect of co-treatment on the protective (foam cell inhibiting) effect of ELA-11,RAW264.7 macrophages [2],reversed
same,effect of co-treatment on the suppression of ER stress markers by ELA-11,[3],lost its inhibitory effect
methoxy polyethylene glycol@Elabela-11 [mPEG@ELA-11],release of ELA-11,"[5]; pH 5.5, after 48 h",91.2%
same,release of ELA-11,"[5]; pH 6.5, after 48 h",74.1%
same,release of ELA-11,"[5]; pH 7.4, after 48 h",38.7%
same,"histopathological changes in major organs (heart, liver, spleen, lungs, and kidneys)",ApoE^-/- mice [4],No significant histopathological changes
same,"tissue morphology of heart, liver, spleen, lungs, and kidneys (H&E), long-term toxicity",ApoE^-/- mice [4],no appreciable changes in tissue morphology
same,changes in body weight,ApoE^-/- mice [4],No significant histopathological changes in any of the organs or abnormal changes in body weight were observed
same,"hydrodynamic diameter, colloidal stability","[6]; 1640 culture medium, day 1",44 ± 4.53 nm
same,"hydrodynamic diameter, colloidal stability","[6]; 1640 culture medium, day 5",50 ± 2.98 nm
same,"hydrodynamic diameter, colloidal stability","[6]; PBS, day 1",36 ± 2.12 nm
same,"hydrodynamic diameter, colloidal stability","[6]; PBS, day 5",42 ± 3.36 nm
same,"hydrodynamic diameter, colloidal stability","[6]; serum, day 1",43 ± 3.01 nm
same,"hydrodynamic diameter, colloidal stability","[6]; serum, day 5",49 ± 3.49 nm
same,size (TEM),[7]; dehydrated NPs,~ 25 nm
same,hydrodynamic diameter (DLS),[7]; in PBS,~ 35 nm
same,IL-1β levels in blood serum,"ApoE^-/- mice [8]; HFD, among the groups, n = 6",no significant differences
same,IL-6 in blood serum compared to the HFD group,"ApoE^-/- mice [8]; HFD, n = 6, P < 0.05",significantly lower
same,TNF-α in blood serum compared to the HFD group,"ApoE^-/- mice [8]; HFD, n = 6, P < 0.05",significantly lower
same,LDL-C: HFD group compared to the treatment group,ApoE^-/- mice [8]; [10],significantly higher
same,total cholesterol: HFD group compared to the treatment group,ApoE^-/- mice [8]; [10],significantly higher
same,triglycerides: HFD group compared to the treatment group,ApoE^-/- mice [8]; [10],significantly higher
same,"necrotic core size in aortic root sections, compared to free ELA-11","ApoE^-/- mice [9]; 1 mg/kg i.p. every 3 days, H&E, n = 6, P < 0.05",more substantial decrease
same,"overall plaque area in aortic root sections, compared to free ELA-11","ApoE^-/- mice [9]; 1 mg/kg i.p. every 3 days, Oil Red O, n = 6, P < 0.001",more substantial decrease
same,"collagen content within the plaques (Masson's trichrome, aortic root)","ApoE^-/- mice [9]; 1 mg/kg i.p. every 3 days, n = 6, P < 0.0001, no significant difference between the 2 treatment groups",increased collagen content
same,"atherosclerotic plaque area of the entire aorta (Oil Red O), compared to free ELA-11","ApoE^-/- mice [9]; 1 mg/kg i.p. every 3 days, n = 6, P < 0.001",greater reduction
same,integrity of the vascular endothelium (CD31 immunofluorescence),"ApoE^-/- mice [9]; n = 6, P < 0.001, P < 0.0001",more effective than free ELA-11
same,smooth muscle cell proliferation in the plaque area (α-SMA immunofluorescence),"ApoE^-/- mice [9]; vs ELA-11 and HFD + PBS group, n = 6, P < 0.05, P < 0.01",significantly inhibited smooth muscle cell proliferation
"O=C(O)CCCc1ccccc1 [4-PBA, 4-phenylbutyric acid]","foam cell formation (Oil Red O), rescue experiment","RAW264.7 macrophages [2]; ox-LDL 50 μg/ml 48 h, cotreatment, P < 0.0001 vs ox-LDL group",comparable
